Entries after “also recorded” stand apart in the source; their conditions may differ.
Columns and labels:
[1] = system: pregnant rats (term delivery); assay: Delay of term delivery in pregnant rats; type: in vivo, Sprague-Dawley rats
Description: Timed-pregnant Sprague-Dawley rats (200-250 g) from Charles-River Laboratories (Wilmington, Mass., USA) were delivered to our animal care facilities on day 15 of gestation (day 1 being the day when a sperm plug was observed). The animals were housed separately, with free access to food and water and maintained on a constant 12-hour light-dark cycle. Control pregnant rats were spontaneously delivering on day 22 of gestation. The animals were randomly allocated into groups and sacrificed by carbon dioxide inhalation on day 5 postpartum or on day 25 of gestation in the groups with delayed delivery.
Pregnant rats (N=6 per group) were treated, when not otherwise mentioned, from day 20 of gestation until delivery. Single daily treatments were performed at 8 am and twice a day treatments at 8 am and 8 pm. Treatment began daily on day 20 of gestation with vehicles or: a) Topical P4 at various doses (4-30 mg/day, vehicle (v)=fish oil) or topical TMG ([…], v=fish oil; b) Subcutaneous (s.c.) P4 (0.5-4 mg/day, v=sesame oil) or s.c. TMG (0.5-2 mg/day, v=benzyl benzoate (BB) and castor oil (CO), 1:4). Delivery times were observed.
Subcutaneous treatments. All daily injections were by the subcutaneous route (s.c) in […] for the P4 treatments and benzyl benzoate (BB, 1 part): castor oil (CO, 4 parts) for the TMG group. P4 and TMG had dose ranges of 0.5 mg-4 mg per day and 0.5 mg-2 mg per day, respectively. Vehicles only are used in the control groups.
Topical treatments. Topical P4 and TMG (in fish oil and benzyl benzoate:castor oil (1:4), respectively) treatments were applied to the shaved back of the rat twice a day For topical treatments of P4 and TMG, dose range from 2 mg-30 mg per day and 0.005 to 0.5 mg per day, respectively.
Times of delivery of controls and treatment groups were determined as hours after 8 a.m. on day 22 of gestation. […] Delays in delivery less than 80 hours were calculated as less than 100% inhibition. The expulsion of a single pup was noted as delivery. Control groups spontaneously delivered on day 22 of gestation.
The Student's t test was used to compare the treatment groups with its specific control groups to determine the differences in delivery times. A 2-tailed probability value of P<0.05 was considered statistically significant.

[2] = system: rat pups of treated pregnant rats; assay: Sex of pups / fetuses of TMG-treated pregnant rats; type: in vivo
Experimental: To determine the effects of TMG on progeny sex ratios, pregnant rats (N=9 per group) were treated daily beginning on day 13 of gestation with TMG (in benzyl benzoate+castor oil, vehicle) or with vehicle only. […] Pups were then placed with surrogate mother also on day 22 of gestation whose pups were sacrificed.
As described, the sex of the pups was evaluated 21 days post-partum by examining external genitalia as well as distance between rectum and genitalia.

[3] = target: T1, progesterone receptor (PR) (Homo sapiens, UniProt P06401); details: cited from earlier work
T1 sequence (P06401 1-933): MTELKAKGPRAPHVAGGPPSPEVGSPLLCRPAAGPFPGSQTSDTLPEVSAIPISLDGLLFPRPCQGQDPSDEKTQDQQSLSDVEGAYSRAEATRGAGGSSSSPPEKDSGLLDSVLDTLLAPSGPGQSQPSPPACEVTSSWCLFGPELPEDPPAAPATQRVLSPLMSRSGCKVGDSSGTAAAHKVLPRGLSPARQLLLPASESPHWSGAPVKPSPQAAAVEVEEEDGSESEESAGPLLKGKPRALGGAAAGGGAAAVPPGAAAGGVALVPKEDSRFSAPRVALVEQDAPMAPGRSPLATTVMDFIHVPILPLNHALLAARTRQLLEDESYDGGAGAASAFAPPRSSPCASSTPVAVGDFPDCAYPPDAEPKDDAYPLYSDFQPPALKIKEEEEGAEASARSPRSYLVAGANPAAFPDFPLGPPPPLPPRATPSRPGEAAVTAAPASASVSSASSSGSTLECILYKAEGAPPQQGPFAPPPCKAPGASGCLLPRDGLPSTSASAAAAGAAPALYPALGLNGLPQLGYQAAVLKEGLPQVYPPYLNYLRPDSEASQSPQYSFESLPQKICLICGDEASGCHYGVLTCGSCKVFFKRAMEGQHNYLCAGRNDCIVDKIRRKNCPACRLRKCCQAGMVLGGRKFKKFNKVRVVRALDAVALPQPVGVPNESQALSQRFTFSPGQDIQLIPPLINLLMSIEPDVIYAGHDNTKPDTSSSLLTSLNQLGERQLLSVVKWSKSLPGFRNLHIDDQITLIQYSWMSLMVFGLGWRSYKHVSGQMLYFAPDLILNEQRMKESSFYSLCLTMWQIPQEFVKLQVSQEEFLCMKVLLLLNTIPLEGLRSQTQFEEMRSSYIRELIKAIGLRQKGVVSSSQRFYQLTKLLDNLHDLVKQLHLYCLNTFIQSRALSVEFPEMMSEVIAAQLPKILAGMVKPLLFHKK

[4] = system: mineralocorticoid receptors (MR); details: cited from earlier work
[5] = system: MMP expression (MMP-1, MMP-3) in cultured stromal cells; details: cited from earlier work
[6] = system: estrogenic activity in the uterine endometrium; details: in vivo; cited from earlier work
[7] = species not stated; cited from earlier work
[8] = pregnant rats, s.c. single daily treatment from day 20 of gestation

With `C[C@H](O)C(=O)[C@@]1(C)CC[C@H]2[C@@H]3CCC4=CC(=O)CCC4=C3CC[C@@]21C` [TMG, trimegestone] the “dose for complete block of delivery (80 hour delay, 100 percent inhibition), subcutaneous” value [1, 8] was 0.5 mg, the “dose for complete block of delivery, subcutaneous” value [1, 8] was 0.5 mg/day and the “lower dose for complete block of term delivery compared to P4, subcutaneous” value ([1]; pregnant rats, s.c., 0.5 mg TMG vs. 2 mg P4, P<0.05) was “ca. 4 ×”. For the same compound, the “dose for complete block of delivery, topical” value ([1]; pregnant rats, topical twice a day from day 20 of gestation) was 0.1 mg/day, the “lower dose for complete block of term delivery compared to P4, topically” value ([1]; pregnant rats, topical, 0.5 mg TMG vs. 15 mg P4, P<0.05) was “ca. 30 ×” and the “potency in delaying delivery in rats compared to P4” value ([1]; topical and parenteral administration) was “more potent than P4”. For the same compound, the “masculinizing or feminizing effects on the fetuses” value ([2]; fetuses of treated rats, treatment from day 13 of pregnancy) was “lacks masculinization or feminization effects; also recorded: no masculinizing or feminizing effects”, the “ratio of male to female pups versus vehicle control” value ([2]; pregnant rats treated from day 13 of gestation, N=9) was “no significant difference; also recorded: non-significant differences” and the “relative binding affinity (RBA) for TMG-PR interactions” value [3] was 588. For the same compound, the “affinity for progesterone receptor (PR), higher than P4” value ([3]; relative to P4) was 6 fold, the “potency, higher than P4” value ([3]; relative to P4) was “approximately 6 times” and the “affinity for the human progesterone receptor, greater than progesterone (P4)” value ([3]; relative to P4, human progesterone receptor) was 6 times. The “affinity to the mineralocorticoid receptor” value [4] was “low affinity”, the “relative binding affinity (RBA) for TMG-mineralocorticoid receptors (MR)” value [4] was 42 and the “effect on MMP expression compared to P4” value [5] was “differential effect on MMP expression; also recorded: tighter control of MMP expression”. For the same compound, the “antagonism of estrogenic activity in the uterine endometrium versus reference progestins” value [6] was “highest level of estrogenic activity antagonism; also recorded: most potent antagonist of estrogenic activity” and the half-life [7] was 17 h.

Source: patent publication US9271991B2, “Trimegestone (TMG) for treatment of preterm birth” (Dignity Health, priority 2010, dated 2016)
